Results published in US20170027877A1, “DRUG COMPOSITION AND METHOD FOR PREPARING THE SAME” (priority 2015, published 2017).

Assay: Test for encapsulating rate of drugs in nanoparticles encapsulating double drugs
Assay type: physicochemical
Conditions: trend as pH of the aqueous mixture solution increased (pH 7.5 to 11, FIG. 1)
Protocol: The synthesized nanoparticles encapsulating double drugs were placed in a concentrating centrifuge tube, and perform centrifugation at a speed of 4,000 rpm for 30 minutes.
(1). Encapsulating Rate of Cisplatin
The clear solution in the concentrating centrifuge tube was diluted 20 folds and mixed with 0.14% solution of o-phenylenediamine in dimethylformamide at a ratio of 1:1, the mixture was heated at 100° C. for 30 minutes and then was cooled in a refrigerator at −20° C. for 10 minutes, finally, the solution was examined for the peak value at a wavelength of 705 nm with UV-visual spectrum, and content of non-encapsulated Cisplatin was converted from the peak value, thereby giving the encapsulating rate of Cisplatin.
(2). Encapsulating Rate Test of Demethoxycurcumin
The nanoparticles on the filter membrane of the concentrating centrifuge tube were re-dissolved in double-distilled water, the solution was mixed with methanol at a ratio of 1:1, and the mixture was analyzed using HPLC. The determination was performed at a flow rate of 1 mL/min under the detection condition at a wavelength of 425 nm, using C18 as stationary phase and acetonitrile-0.3% FA (50:50, v/v) as mobile phase, and the detection result was converted into the concentration of demethoxycurcumin to obtain the encapsulating rate of the drug.

With `N.N.[Cl][Pt][Cl]` [Cisplatin] the encapsulating rate was “increased”.
